Test results: US20100098737A1, “METHODS AND COMPOSITIONS FOR DELIVERY OF GLYCOPEPTIDE ANTIBIOTICS TO MEDICAL DEVICE SURFACES” (priority 2008, published 2010)
Where two headings read alike, the source gives them in different places. *1 amine or outer side, *2 acyl side, *3 side chain or, on linkers, in order; H or OH if unused. Bridges are numbered along the chain shown (N, C = ends). Where no end group is shown, it is not given here. [ ]: non-standard residue; d: D form. The star is where a group is joined. (miniPEG)2 = linker of two miniPEG units, each HN-CH2CH2-O-CH2CH2-O-CH2-C(=O), O=C(COCCOCCN[*:1])NCCOCCOCC(=O)[*:2]; Myristoyl = CCCCCCCCCCCCCC(=O)*; Aun = NCCCCCCCCCCC(=O)O; Ahx = NCCCCCC(=O)O

What was measured:
[1] = binding assay for gentamycin, similar format as for vancomycin; conditions: aminoglycoside antibiotic
[2] = binding assay: biotinylated synthetic peptide on streptavidin plate, titrated with biotinylated glycopeptide antibiotic
Method: A typical binding assay for glycopeptide antibiotic was performed according to the following procedure. Briefly, synthetic peptides comprising an amino acid sequence to be characterized for binding were biotinylated to facilitate immobilization on streptavidin-coated 96-well plates. The microtiter plates were coated with streptavidin by adding 50 μl of a 10 μg/ml streptavidin solution in 0.1M NaHCO3, and incubating the plates for at least 3 hours. The plate wells were blocked by adding 150 μl of a 1% BSA solution in 0.1 NaHCO3 with incubation for at least 2 hours, and the plates were stored at 4° C. until needed. Before use, the streptavidin plates were washed extensively in buffer-T. Added per well was peptide (100 μl 0.1 μM peptide in buffer-T), and then incubated for 30 minutes at room temperature with shaking. 200 μl of 0.5 mM biotin in buffer-T was added to block the remaining streptavidin sites, and plates were incubated for 15 minutes at room temperature. Plates were then washed with buffer-T to remove the excess biotin and peptide. Serial dilutions of biotinylated glycopeptide antibiotic in buffer-T were added (100 μl) to each well, representing a range of concentrations between 100 pM and 100 μM. Plates were incubated for 30 minutes at room temperature with shaking prior to washing several times with buffer-T. Glycopeptide antibiotic was then detected by adding 100 μl of a diluted streptavidin-alkaline phosphatase conjugate to each well and incubated at room temperature for 30 minutes. Excess conjugate was removed by repeated washes with buffer-T, and the amount of alkaline phosphatase remaining in the well was detected using a pNPP (para-nitrophenylphosphate) colorimetric enzymatic assay. The relative amount of glycopeptide antibiotic captured by the peptides was determined by measuring the absorbance at 405 nm of the colored product of the alkaline phosphatase reaction. The EC50 was determined for each peptide relative to the binding affinity for the glycopeptide antibiotic used in the assay, as shown in Table 1 (with vancomycin as a representative glycopeptide antibiotic).
A typical binding assay for glycopeptide antibiotic was performed according to the following procedure. The concentrations of the alkaline-phosphatase linked variant peptides were normalized to equal levels based on the alkaline-phosphatase activity as determined in a kinetic assay with the alkaline-phosphatase specific chromogenic substrate p-nitrophenyl phosphate (p-NPP). A streptavidin coated microtiter plate was coated with biotinylated vancomycin. Serial dilutions of normalized alkaline-phosphatase linked peptides were allowed to bind to the immobilized vancomycin and detected by addition of the alkaline-phosphatase specific chromogenic substrate p-NPP. Relative affinity for peptide binding to the immobilized vancomycin was determined by measuring the absorbance at 405 nm of the colored product of the alkaline phosphatase reaction. […] EC50 values for the synthetic peptides binding to vancomycin were determined as described in Example 1 and are shown in Table 3. Preferred are peptides that bind to glycopeptide antibiotic with binding affinity of EC50 of less than or equal to about 1 μM, and more preferably, in the nanomolar range (e.g., <0.1 μM).

[3] = system: binding between vancomycin and a peptide comprising SEQ ID NO:1; assay: inhibition by Lys-D-Ala-D-Ala of binding between vancomycin and peptide SEQ ID NO:1
Method: As an example, illustrated is the inhibition by Lys-D-Ala-D-Ala of specific binding between vancomycin and a peptide comprising the amino acid sequence of SEQ ID NO:1. To the wells of a 96 well plate coated with streptavidin was added 100 μl of a 0.2 μM solution of biotinylated peptide in buffer-T. After incubation, the wells were blocked by adding 200 μl of a 0.5 mM solution of biotin in buffer-T. The plates were then washed three times with buffer-T. Serial dilutions of Lys-D-Ala-D-Ala were prepared, and added individually to the wells such that Lys-D-Ala-D-Ala ranged in a final concentration of from about 1 μM to about 200 μM (in a volume of 35 μl). Also added to each well was 35 μl of biotinylated vancomycin (20 nM final concentration), and the plate was incubated at 30 minutes for room temperature. The wells were then washed three times with buffer-T, followed by the addition of 100 μl of streptavidin-alkaline phosphatase conjugate (1 mg/ml diluted 1:500 in buffer-T). Following a 30 minute incubation, the wells were washed five times with buffer-T. Added to each well was 100 μl of pNPP, followed by colorimetric detection after 12 minutes at an absorbance of 405 nm.

[4] = system: S. aureus MZ100; assay: in vitro infection model on titanium pins, colony counts; type: cell-based; conditions: composition 5 μM + vancomycin 100 μM, two hours incubation
Method: Acetone-sterilized titanium pins (1 mm diameter, 12 mm long) were first washed in PBS. These pins were then incubated in a solution (PBS) containing the respective composition (5 μM)+vancomycin (100 μM) for 15 minutes at room temperature, with intermittent inversion for coating. Each pin was then washed extensively in PBS and placed in 30 μL of S. aureus MZ100 cultured at 10^6 colony forming units (cfu) per mL, according to methods above. The coated pins were then inoculated in 30 mm lengths of 1.5 mm diameter silicone tubing, with closed ends. After incubation for two hours with shaking, the pin was placed in a new tube containing 1 mL PBS. After inverting several times, PBS was aspirated, and replaced with a fresh 1 mL of PBS. The pins were then sonicated at 20 kHz for four cycles of 15 seconds each. Supernatants (100 μL) and dilutions were plated on trypticase soy agar (TSA) plates, incubated for 24 hours at 37° C., and colonies were counted. An assay control included the same steps of the infection model, except that the pin is uncoated pin (i.e., without composition according to the presently disclosed subject matter bound thereto) (“Control”). As representative examples, compositions comprising the amino acid sequences of SEQ ID NOs: 125 and 126 were tested for antimicrobial activity using the in vitro infection model (see, Table 7, “A” & “B”, respectively).

[5] = molecular target: vancomycin; assay: retention of BODIPY-FL vancomycin on titanium beads with the peptide composition, followed from 45 minutes to 100 hours
[6] = molecular target: vancomycin; assay: titanium beads with 10 µM peptide composition and 200 µM vancomycin, washed, vancomycin eluted with HCl and measured by HPLC

## CLIDMYGVCHNFDGAYDS [compound 1]
[1]
  binding affinity for gentamycin: lacked significant binding affinity
[2]; synthetic peptides binding to vancomycin, read-out: EC50, binding to glycopeptide antibiotic
  EC50: < 0.1 µM
[2]; synthetic peptides, biotinylated vancomycin, read-out: EC50 (μM) for vancomycin binding
  EC50: 0.1 µM

## Lys-D-Ala-D-Ala (Lys-[dA]-[dA])
[3]; Lys-D-Ala-D-Ala between 100 μM to 200 μM
  inhibition of binding between vancomycin and peptide: ~100%
[3]; biotinylated vancomycin 20 nM, read-out: concentration needed to inhibit about 50% of the binding between vancomycin and peptide
  IC50: ~10000 nM

## AUD-AUD-AUD-SSCLIDIYGVCHNFDAY-(miniPEG)2-HKKNNPKKKNKTRGSSK ([Aun][Aun][Aun]SSCLIDIYGVCHNFDAY[miniPEG][miniPEG]HKKNNPKKKNKTRGSSK; disulfide 6-14 (inferred)) [SEQ ID NO: 126]
[4]
  # of bacterial colonies (CFU): <10 CFU

## Myr-Ahx-SSCLIDIYGVCHNFDAY-(miniPEG)2-HKKNNPKKKNKTRGSSK ({Myristoyl-Ahx}-SSCLIDIYGVCHNFDAY[miniPEG][miniPEG]HKKNNPKKKNKTRGSSK; disulfide 3-11 (inferred)) [SEQ ID NO: 125]
[4]
  # of bacterial colonies (CFU): 100 CFU

B1: peptide composition comprising SEQ ID NO: 120 (peptide)
peptide: H-SSSCLIDMYGVCHNFDGAYDSSRG[(miniPEG)2]SSHRTNHKKNNPKKKNKTRGSSGK-NH2
modifications: disulfide 4-12 (inferred)
[5]
  percent of BODIPY-FL vancomycin remaining on the metal surface after 3 hours: 50%
[6]
  Picomoles vancomycin/cm^2 (picomoles/cm^2): 61
